In patent publication US20030171218A1, “Substituted 3-heteroaryl(amino- or oxy)pyrrolidin-2-ones, their preparation and use as herbicides or plant growth regulators” (priority 2001, published 2003):

How the values were obtained:
[1] = system: weed plants such as Digitaria sanguinalis, Echinochloa crus-galli, Setaria faberi, Setaria viridis, Sorghum halepense, Abutilon theophrasti, Amaranthum …; experiment: Pre-emergence effect on weeds (greenhouse pot test); assay type: in vivo, monocotyledonous and dicotyledonous weed plants; conditions: application rate of 1 kg or less of active substance per hectare; scored visually after 3 to 4 weeks by comparison with untreated controls
Outline: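 Weed seeds or rhizome pieces sown in sandy loam and covered; compounds, formulated as wettable powders or emulsion concentrates, sprayed onto the soil surface as aqueous suspensions/emulsions at 600 to 800 l water/ha in various dosages. Greenhouse growth; visual scoring of plant damage/emergence versus untreated controls after 3 to 4 weeks.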

[2] = system: harmful plants such as Digitaria sanguinalis, Echinochloa crus-galli, Setaria faberi, Setaria viridis, Sorghum halepense, Abutilon theophrasti, Amaranthum …; experiment: Post-emergence effect on weeds (greenhouse pot test); assay type: in vivo, monocotyledonous and dicotyledonous weeds; conditions: application rate of 1 kg and less of active substance per hectare; treated at three-leaf stage; scored visually after about 3 to 4 weeks by comparison with untreated controls
Outline: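 Greenhouse-grown weeds in sandy loam, sprayed at three-leaf stage (three weeks after sowing) with wettable powder or emulsion concentrate formulations at various dosages in 600 to 800 l water/ha. Effect scored visually against untreated controls after about 3 to 4 weeks.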

| Structure (SMILES) | herbicidal activity pre-emergence [1] | herbicidal activity post-emergence [2] | melting point [°C] |
| --- | --- | --- | --- |
| CC(C)c1nc(N)nc(NC2CCN(c3ccccc3)C2=O)n1 (stereo not drawn) [Example A20] | very good herbicidal activity | very good herbicidal activity | 210 |
| CN(c1nc(N)nc(C(C)(C)F)n1)C1CCN(c2cccc(OC(F)(F)F)c2)C1=O (stereo not drawn) [Example A80] | very good herbicidal activity | very good herbicidal activity | – |
| Cc1cc(N2CCC(N(C)c3nc(N)nc(C(C)F)n3)C2=O)ccc1F (stereo not drawn) [Example A67] | very good herbicidal activity | very good herbicidal activity | – |
| CC(C)c1nc(N)nc(OC2CCN(c3cccc(OC(F)(F)F)c3)C2=O)n1 (stereo not drawn) [Example A51] | very good herbicidal activity | very good herbicidal activity | – |
| CC(C)c1nc(N)nc(N(C)C2CCN(c3cccc(OC(F)(F)F)c3)C2)n1 (stereo not drawn) [Example E67] | very good herbicidal activity | very good herbicidal activity | – |
| Cc1cccc(N2CCC(Oc3nc(N)nc(C(C)C)n3)C2=O)c1 (stereo not drawn) [Example A47] | very good herbicidal activity | very good herbicidal activity | – |
| Cc1cc(C)cc(N2CCC(Oc3nc(N)nc(C(C)C)n3)C2=O)c1 (stereo not drawn) [Example A48] | very good herbicidal activity | very good herbicidal activity | – |
| CC(C)c1nc(N)nc(N(C)C2CCN(c3cccc(C(F)(F)F)c3)C2)n1 (stereo not drawn) [Example E66] | very good herbicidal activity | very good herbicidal activity | – |
| CC(C)(F)c1nc(N)nc(OC2CCN(c3ccccc3)C2=O)n1 (stereo not drawn) [Example A55] | very good herbicidal activity | very good herbicidal activity | 77 |
| Cc1cccc(N2CCC(N(C)c3nc(N)nc(C(C)(C)F)n3)C2=O)c1 (stereo not drawn) [Example A84] | very good herbicidal activity | very good herbicidal activity | – |
| Cc1cccc(N2CCC(Nc3nc(N)nc(C(C)C)n3)C2)c1 (stereo not drawn) [Example E9] | very good herbicidal activity | very good herbicidal activity | – |
| CC(F)c1nc(N)nc(OC2CCN(C(C)(C)c3cccc(Cl)c3)C2=O)n1 (stereo not drawn) [Example F1] | very good herbicidal activity | very good herbicidal activity | – |
| CC(C)c1nc(N)nc(NC2CCN(c3cccc(C(F)(F)F)c3)C2=O)n1 (stereo not drawn) [Example A21] | very good herbicidal activity | very good herbicidal activity | – |
| CC(C)(F)c1nc(N)nc(OC2CCN(c3cccc(Cl)c3)C2=O)n1 (stereo not drawn) [Example A61] | very good herbicidal activity | very good herbicidal activity | – |
| CC(C)(F)c1nc(N)nc(NC2CCN(c3cccc(OC(F)(F)F)c3)C2=O)n1 (stereo not drawn) [Example A31] | very good herbicidal activity | very good herbicidal activity | – |
| COc1cccc(N2CCC(Oc3nc(N)nc(C(C)C)n3)C2=O)c1 (stereo not drawn) [Example A50] | very good herbicidal activity | very good herbicidal activity | – |
| Cc1nc(N)nc(NC2CCN(c3ccccc3)C2=O)n1 (stereo not drawn) [Example A2] | very good herbicidal activity | very good herbicidal activity | – |
| Cc1cccc(N2CCC(Nc3nc(N)nc(C(C)(C)F)n3)C2=O)c1 (stereo not drawn) [Example A33] | very good herbicidal activity | very good herbicidal activity | – |
| CN(c1nc(N)nc(C(C)(C)F)n1)C1CCN(c2cccc(F)c2)C1=O (stereo not drawn) [Example A82] | very good herbicidal activity | very good herbicidal activity | – |
| CC(C)(F)c1nc(N)nc(NC2CCN(c3cccc(C(F)(F)F)c3)C2)n1 (stereo not drawn) [Example E19] | very good herbicidal activity | very good herbicidal activity | – |
| Cc1cccc(N2CCC(N(C)c3nc(N)nc(C(C)C)n3)C2=O)c1 (stereo not drawn) [Example A74] | very good herbicidal activity | very good herbicidal activity | – |
| Cc1cc(C)cc(N2CCC(Nc3nc(N)nc(C(C)F)n3)C2)c1 (stereo not drawn) [Example E26] | very good herbicidal activity | very good herbicidal activity | – |
| CC(F)c1nc(N)nc(NC2CCN(c3cccc(C(F)(F)F)c3)C2)n1 (stereo not drawn) [Example E20] | very good herbicidal activity | very good herbicidal activity | – |
